These results are taken from patent US20250262201A1, “COMPOUNDS AND METHODS USEFUL FOR STABILIZING PHENYLALANINE HYDROXYLASE MUTATIONS” (Agios Pharmaceuticals, Inc., priority 2022, published 2025).

The test addresses T1, human PAH with the R408W mutation (Homo sapiens, UniProt P00439, R408W).
T1 construct: expressed in transfected cells
T1 sequence (P00439 1-452 R408W): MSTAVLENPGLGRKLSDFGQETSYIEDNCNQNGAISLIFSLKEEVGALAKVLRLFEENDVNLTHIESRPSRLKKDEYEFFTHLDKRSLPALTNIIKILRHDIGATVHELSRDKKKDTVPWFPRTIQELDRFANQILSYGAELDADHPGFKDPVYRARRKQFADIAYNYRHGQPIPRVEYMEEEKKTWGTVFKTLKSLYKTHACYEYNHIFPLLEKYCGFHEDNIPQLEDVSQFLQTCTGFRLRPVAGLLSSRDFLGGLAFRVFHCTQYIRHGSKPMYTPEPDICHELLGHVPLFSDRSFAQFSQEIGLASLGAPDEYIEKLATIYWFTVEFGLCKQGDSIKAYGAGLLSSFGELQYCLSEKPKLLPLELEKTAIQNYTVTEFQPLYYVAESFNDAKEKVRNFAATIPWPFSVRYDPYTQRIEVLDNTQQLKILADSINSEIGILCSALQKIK
Description: Cell Based Phenylalanine Flux Assay. The note with it: 13C-Tyrosine by LC-MS, average where tested multiple times. On the set-up: scale not given here.

The mark [1] stands for this setting: A375 R408W cells, 24 hrs with compound, then 20 μM sepiapterin and 800 μM 13C9,15N-Phenylalanine for 4 hours, read-out: AC50.
[2] abbreviates: A375 cells expressing human R408W PAH, 24 hrs compound incubation, read-out: AC50.

Like-named read-outs stand apart in the source and are kept apart here.

On to `CC(C)(O)c1ccc2c(C(=O)N3CCc4[nH]cnc4[C@H]3c3cc4ccccc4cn3)cnn2c1` (single isomer, unassigned), for which the AC50 (usually the concentration giving half of the maximal activity seen) under setting [1] is 1000 to 5000 nM.

Turning to `CN(C)Cc1ccc2c(C(=O)N3CCc4[nH]cnc4C3c3ccc4ccccc4n3)cnn2c1` (centres unmarked), the concentration at half-maximal activity (AC50) under setting [1] is above 5000 nM.

On to `O=C(c1cnn2ccc(Br)cc12)N1CCc2[nH]cnc2[C@H]1c1cc2ccccc2cn1` [Example 356, (R)-(5-bromopyrazolo[1,5-a]pyridin-3-yl)(4-(isoquinolin-3-yl)-6,7-dihydro-1H-imidazo[4,5-c]pyridin-5(4H)-yl)methanone], for which, under setting [2], the concentration at half-maximal activity (AC50) was below 500 nM.

Regarding `Cc1nc(C(F)(F)F)c(C(=O)N2CCc3nc[nH]c3[C@H]2c2cn3ccccc3n2)o1` (single isomer, unassigned), the AC50 result (A375 R408W cells, 24 hrs with compound, then 20 μM sepiapterin and 800 μM 13C9,15N-Phenylalanine for 4 hours) is listed as “E, E”.

As for `N#Cc1ncoc1C(=O)N1CCc2[nH]cnc2C1c1cn2ccccc2n1` (centres unmarked), the AC50 under setting [1] was above 5000 nM.

For `O=C(c1nnc(-c2ccncc2)o1)N1CCc2[nH]cnc2[C@H]1c1ncc2ccccc2n1` [Example 179, (S)-(5-(pyridin-4-yl)-1,3,4-oxadiazol-2-yl)(4-(quinazolin-2-yl)-6,7-dihydro-1H-imidazo[4,5-c]pyridin-5(4H)-yl)methanone], the AC50 under setting [2] was below 500 nM.

As to `Cc1nc(C2(O)CC2)oc1C(=O)N1CCc2[nH]cnc2C1c1ccc2ccccc2n1` (centres unmarked), the half-maximal activity concentration (AC50) under setting [1] is above 5000 nM.

On to `Cc1ncoc1C(=O)N1CC2(CC2)c2[nH]cnc2C1c1ccc2ccccc2n1` (centres unmarked), for which the half-maximal activity concentration (AC50) under setting [1] fell in the range of 1000 to 5000 nM.

`Cc1nc(C(C)(C)F)oc1C(=O)N1CCc2[nH]cnc2C1c1ccc2ccccc2n1` (stereo in doubt) [Example 21, (S)-(2-(2-fluoropropan-2-yl)-4-methyloxazol-5-yl)(4-(quinolin-2-yl)-6,7-dihydro-1H-imidazo[4,5-c]pyridin-5(4H)-yl)methanone]: the AC50 under setting [2] was above 5000 nM.

Consider `Cc1nc(-c2ccccn2)oc1C(=O)N1C[C@H](C)c2[nH]cnc2[C@H]1c1cc2ccccc2cn1` [Example 403, ((4R,7S)-4-(isoquinolin-3-yl)-7-methyl-6,7-dihydro-1H-imidazo[4,5-c]pyridin-5(4H)-yl)(4-methyl-2-(pyridin-2-yl)oxazol-5-yl)methanone], for which, under setting [2], the AC50 was below 500 nM.

In the case of `Cn1cc(-c2nnc(C(=O)N3CCc4[nH]cnc4C3c3cc4ccccc4nn3)o2)cn1` (centres unmarked), the AC50 under setting [1] fell in the range of 1000 to 5000 nM.

On to `C[C@@H](O)c1nnc(C(=O)N2CCc3[nH]cnc3[C@H]2c2cc3ccccc3cn2)o1` [Example 465, (5-((R)-1-hydroxyethyl)-1,3,4-oxadiazol-2-yl)((R)-4-(isoquinolin-3-yl)-6,7-dihydro-1H-imidazo[4,5-c]pyridin-5(4H)-yl)methanone], for which, under setting [2], the half-maximal activity concentration (AC50) is 500 to 1000 nM.

Consider `O=C(c1nnc(-c2ncccn2)o1)N1CCc2[nH]cnc2[C@H]1c1cc2ccccc2cn1` [Example 473, (R)-(4-(isoquinolin-3-yl)-6,7-dihydro-1H-imidazo[4,5-c]pyridin-5(4H)-yl)(5-(pyrimidin-2-yl)-1,3,4-oxadiazol-2-yl)methanone], for which, under setting [2], the half-maximal activity concentration (AC50) is below 500 nM.

`O=C(c1ocnc1C(F)F)N1CCc2nc[nH]c2C1c1cn2ccccc2n1` (centres unmarked): under setting [1], the concentration at half-maximal activity (AC50) lay within 1000 to 5000 nM.

For `CC(C)(C)c1ncc(C(=O)N2CCc3[nH]cnc3C2c2ccc3ccccc3n2)o1` (stereo in doubt) [Example 258, (R)-(2-(tert-butyl)oxazol-5-yl)(4-(quinolin-2-yl)-6,7-dihydro-1H-imidazo[4,5-c]pyridin-5(4H)-yl)methanone], the AC50 under setting [2] is below 500 nM.

With `O=C(CC1CC1)N1CCc2[nH]cnc2C1c1ccc2ccccc2n1` (stereo in doubt) [Example 41, (R)-2-cyclopropyl-1-(4-(quinolin-2-yl)-6,7-dihydro-1H-imidazo[4,5-c]pyridin-5(4H)-yl)ethanone], the AC50 under setting [2] was below 500 nM.

As to `CC(O)c1nc(Cl)c(C(=O)N2CCc3[nH]cnc3[C@H]2c2ccc3ccccc3n2)o1` (single isomer, unassigned) [Example 137], the concentration at half-maximal activity (AC50) under setting [2] is below 500 nM.

Turning to `O=C(c1nnc(-c2ncccc2F)o1)N1CCc2[nH]cnc2[C@@H]1c1ncc2ccccc2n1` [Example 164, (R)-(5-(3-fluoropyridin-2-yl)-1,3,4-oxadiazol-2-yl)(4-(quinazolin-2-yl)-6,7-dihydro-1H-imidazo[4,5-c]pyridin-5(4H)-yl)methanone], the AC50 under setting [2] is above 5000 nM.

As for `O=C([C@H]1CC1(F)F)N1CCc2[nH]cnc2[C@@H]1c1ccc2ccccc2n1` (stereo in doubt) [Example 49, ((R)-2,2-difluorocyclopropyl)((R)-4-(quinolin-2-yl)-6,7-dihydro-1H-imidazo[4,5-c]pyridin-5(4H)-yl)methanone], the AC50 under setting [2] is below 500 nM.

For the compound `CC(C)(O)c1ccc2c(C(=O)N3CCc4[nH]cnc4C3c3cc4ccccc4cn3)cnn2c1` (centres unmarked), the AC50 under setting [1] is above 5000 nM.

As for `O=C(c1cnn(-c2ccccn2)c1Cl)N1CCc2[nH]cnc2C1c1ccc2ccccc2n1` (centres unmarked), the AC50 under setting [1] lay within 1000 to 5000 nM.

In the case of `O=C(c1nnc(C2CC2)o1)N1CCc2[nH]cnc2C1c1cc2ccccc2cn1` (stereo in doubt) [Example 327, (S)-(5-cyclopropyl-1,3,4-oxadiazol-2-yl)(4-(isoquinolin-3-y1)-6,7-dihydro-1H-imidazo[4,5-c]pyridin-5(4H)-yl)methanone], under setting [2], the AC50 was above 5000 nM.

In the case of `CN(C)c1nnc(C(=O)N2CCc3[nH]cnc3C2c2ccc3ccccc3n2)o1` (centres unmarked), the AC50 under setting [1] is above 5000 nM.

On to `Cn1cncc1-c1nnc(C(=O)N2CCc3[nH]cnc3C2c2ncc3ccccc3n2)o1` (centres unmarked), for which, under setting [1], the concentration at half-maximal activity (AC50) lay in the range of 1000 to 5000 nM.

As to `CC(C)(F)c1ncc(C(=O)N2CCc3[nH]cnc3C2c2ccc3ccccc3n2)s1` (stereo in doubt) [Example 15, (R)-(2-(2-fluoropropan-2-yl)thiazol-5-yl)(4-(quinolin-2-yl)-6,7-dihydro-1H-imidazo[4,5-c]pyridin-5(4H)-yl)methanone], the AC50 under setting [2] lay within 500 to 1000 nM.

Turning to `Cc1ccc(-c2nnc(C(=O)N3CCc4[nH]cnc4C3c3ccc4ccccc4n3)o2)nc1` (stereo in doubt) [Example 103, (S)-(5-(5-methylpyridin-2-yl)-1,3,4-oxadiazol-2-yl)(4-(quinolin-2-yl)-6,7-dihydro-1H-imidazo[4,5-c]pyridin-5(4H)-yl)methanone], under setting [2], the AC50 lay within 1000 to 5000 nM.

`O=C(c1nnc(-c2ccc(C(F)(F)F)cc2)o1)N1CCc2[nH]cnc2C1c1ccc2ccccc2n1` (centres unmarked): the AC50 under setting [1] was above 5000 nM.

As to `Cn1nccc1-c1nnc(C(=O)N2CCc3[nH]cnc3[C@@H]2c2ncc3ccccc3n2)o1` [Example 204, (R)-(5-(1-methyl-1H-pyrazol-5-yl)-1,3,4-oxadiazol-2-yl)(4-(quinazolin-2-yl)-6,7-dihydro-1H-imidazo[4,5-c]pyridin-5(4H)-yl)methanone], under setting [2], the half-maximal activity concentration (AC50) lay in the range of 1000 to 5000 nM.

As to `O=C(c1cnco1)N1CCc2[nH]cnc2C1c1ccc2ccccc2n1` (centres unmarked), the concentration at half-maximal activity (AC50) under setting [1] lay within 1000 to 5000 nM.

Consider `O=C(CCc1nccs1)N1CCc2[nH]cnc2C1c1ccc2ccccc2n1` (stereo in doubt) [Example 272, (S)-1-(4-(quinolin-2-yl)-6,7-dihydro-1H-imidazo[4,5-c]pyridin-5(4H)-yl)-3-(thiazol-2-yl)propan-1-one], for which, under setting [2], the AC50 was above 5000 nM.

For the compound `O=C(c1nnc(-c2cnn(C3CCC3)c2)o1)N1CCc2[nH]cnc2[C@H]1c1ncc2ccccc2n1` [Example 187, (S)-(5-(1-cyclobutyl-1H-pyrazol-4-yl)-1,3,4-oxadiazol-2-yl)(4-(quinazolin-2-yl)-6,7-dihydro-1H-imidazo[4,5-c]pyridin-5(4H)-yl)methanone], the AC50 under setting [2] is below 500 nM.

For `O=C(c1nnc(-c2ccccc2)s1)N1CCc2[nH]cnc2[C@H]1c1cc2ccccc2cn1` [Example 364, (R)-(4-(isoquinolin-3-yl)-6,7-dihydro-1H-imidazo[4,5-c]pyridin-5(4H)-yl)(5-phenyl-1,3,4-thiadiazol-2-yl)methanone], the half-maximal activity concentration (AC50) under setting [2] was below 500 nM.

On to `CN1CCN(c2nnc(C(=O)N3CCc4[nH]cnc4[C@H]3c3cc4ccccc4cn3)o2)CC1`, for which the AC50 under setting [1] was 1000 to 5000 nM.

As for `O=C(c1nnc(N2CCC(F)CC2)o1)N1CCc2[nH]cnc2[C@H]1c1ncc2ccccc2n1` [Example 159, (S)-(5-(4-fluoropiperidin-1-yl)-1,3,4-oxadiazol-2-yl)(4-(quinazolin-2-yl)-6,7-dihydro-1H-imidazo[4,5-c]pyridin-5(4H)-yl)methanone], the AC50 under setting [2] was 1000 to 5000 nM.

Consider `CC(C)(O)c1nc(C(F)F)c(C(=O)N2CCc3[nH]cnc3[C@@H]2c2cc3ccccc3nn2)o1` [Example 210, (R)-(4-(cinnolin-3-yl)-6,7-dihydro-1H-imidazo[4,5-c]pyridin-5(4H)-yl)(4-(difluoromethyl)-2-(2-hydroxypropan-2-yl)oxazol-5-yl)methanone], for which the concentration at half-maximal activity (AC50) under setting [2] lay in the range of 1000 to 5000 nM.

Consider `COC(C)(C)c1nc(C)c(C(=O)N2CCc3[nH]cnc3C2c2ccc3ccccc3n2)o1` (centres unmarked), for which, under setting [1], the half-maximal activity concentration (AC50) fell in the range of 1000 to 5000 nM.

On to `O=C(C1CN(CC(F)(F)F)C1)N1CCc2[nH]cnc2C1c1ccc2ccccc2n1` (centres unmarked), for which the AC50 under setting [1] is above 5000 nM.

As for `Cc1nc(-c2ccccn2)oc1C(=O)N1C[C@@H](C)c2[nH]cnc2[C@@H]1c1cc2ccccc2cn1` [Example 405, [(4S,7R)-4-(3-isoquinolyl)-7-methyl-1,4,6,7-tetrahydroimidazo[4,5-c]pyridin-5-yl]-[4-methyl-2-(2-pyridyl)oxazol-5-yl]methanone], under setting [2], the AC50 is 1000 to 5000 nM.
